Read-outs that look alike come from different tables or passages of the source. One block for each molecule: values may come before it.
Assays:
[1] = system: anesthetized rats (evoked responses of anterior tibial muscle); assay: Muscle relaxant (neuromuscular blocking) properties, anesthetized rat (Example 9, Table 9); details: rat; for ED50: intravenous dose causing 50% neuromuscular block, spread in brackets; for RI (recovery index): spontaneous recovery, 25-75% neuromuscular response; for Onset: time to 80-85% neuromuscular block
Source text: The data on muscle relaxant action were obtained on anesthetized rats, and when indicated, also on juvenile pigs
Adult, male albino rats were anesthetized with pentobarbital injected intraperitoneally. Juvenile, Duroc pigs 9-12 kg body weight were anesthetized with Chloralose Nembutal sodium mixture intraperitoneally after deep sedation with inhaled halothane. The trachea was cannulated for artificial respiration via a small animal respirator. The carotid artery was cannulated for recording blood pressure via a transducer and heart rate by a cardiotachograph on a polygraph. One external jugular vein was cannulated for i.v. drug administration. Neuromuscular function was monitored by electromyography, recording evoked responses from the anterior tibial muscle as a result of supramaximal nerve stimuli consisting of single or “train-of-four” rectangular pulses of 0.1-0.2 msec duration every 10-12 seconds, delivered to the sciatic or common peroneal nerve by a laboratory nerve stimulator. Another mode of stimulation included repeated single stimuli delivered at 0.1 Hz or 1 Hz. […] The agents were dissolved in physiologic saline and injected intravenously at appropriate time intervals. The intensity, onset, and duration of neuromuscular block and its type were determined with each agent. Through administering several doses, the doses corresponding to 50%, 80% and 90% neuromuscular block were determined. All agents were compared with selected standard neuromuscular blocking compounds, e.g., rocuronium.
(§1) Onset=time in minutes to 80-85% neuromuscular block.
(§2) RI=recovery index, minutes, spontaneous recovery, 25-75% neuromuscular response.
(§3) VB=vagal block, %, at 80-85% neuromuscular blocking dose.
HR=change in heart rate, %, at 80-85% neuromuscular blocking dose.
BP=change in arterial blood pressure, %, at 80-85% neuromuscular blocking dose.

[2] = system: anesthetized juvenile pigs; assay: animal or person; format: in vivo; details: pig; for ED50: intravenous dose causing 50% neuromuscular block; for VB (vagal block) / ΔBP (change in arterial blood pressure) / ΔH (change in heart rate): in vivo; for RI (recovery index): spontaneous recovery, 25-75% neuromuscular response; for Onset: time to 80-85% neuromuscular block
In short: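 Electromyographic and mechanomyographic responses quantified. Monkeys sedated with intramuscular ketamine, then general anesthesia with intravenous pentobarbital and propofol; juvenile pigs induced with inhaled halothane.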

[3] = system: anesthetized cats (evoked responses of anterior tibial muscle); assay: animal or person; details: for ED50: intravenous dose causing 50% neuromuscular block; for RI (recovery index): spontaneous recovery, 25-75% neuromuscular response; for Onset: time to 80-85% neuromuscular block
Source text: a) Adult, male albino rats were anesthetized with pentobarbital injected intraperitoneally. The trachea was cannulated for artificial respiration via a small animal respirator. The carotid artery was cannulated for recording blood pressure via a transducer and heart rate by a cardiotachograph on a polygraph. One external jugular vein was cannulated for i.v. drug administration. Neuromuscular function was monitored by electromyography, recording evoked responses from the anterior tibial muscle as a result of supramaximal nerve stimuli consisting of single or “train-of-four” rectangular pulses of 0.1-0.2 msec duration every 10-12 seconds, delivered to the sciatic or common peroneal nerve by a laboratory nerve stimulator. Another mode of stimulation included repeated single stimuli delivered at 0.1 Hz or 1 Hz. […] The agents were dissolved in physiologic saline and injected intravenously at appropriate time intervals. The intensity, onset, and duration of neuromuscular block and its type were determined with each agent. Through administering several doses, the doses corresponding to 50%, 80% and 90% neuromuscular block were determined. All agents were compared with selected standard neuromuscular blocking compounds, e.g. succinylcholine, pancuronium, mivacurium, or rocuronium.
as §1, §2, §3
ΔHR=change in heart rate, %, at 80-85% neuromuscular blocking dose.
ΔBP=change in arterial blood pressure, %, at 80-85% neuromuscular blocking dose.
b) Adult cats were anesthetized with a mixture of 70 mg/kg alpha chloralose and 0.5 g/kg ethylurethane intraperitoneally. One thigh was fixed in a vertical position by means of a pin at the lower end of the femur. Needle electrodes were placed on the sciatic or the common peroneal nerve. A tendon of the anterior tibial muscle was attached to a force transducer and the muscle responses evoked, as described under a), were recorded. Both electromyographic and mechanomyographic responses can be quantified. Blood pressure and heart rate changes were recorded from appropriately cannulated arteries via a blood pressure transducer and cardiotachograph.

[4] = system: anesthetized rats (evoked responses of anterior tibial muscle); assay: In vivo neuromuscular block and cardiovascular side effects, anesthetized rat (Example 8, Table 3); details: rat; for ED50: intravenous dose causing 50% neuromuscular block; for RI (recovery index): spontaneous recovery, 25-75% neuromuscular response; for Onset: time to 80-85% neuromuscular block
In short: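 Pentobarbital-anesthetized (i.p.), ventilated adult male rats given saline-dissolved agents i.v.; anterior tibial EMG responses to supramaximal single or train-of-four sciatic/peroneal stimuli, plus 0.1 or 1 Hz stimulation. Doses for 50%, 80%, 90% block derived. Onset: minutes to 80-85% block; RI: 25-75% spontaneous recovery; vagal block, heart rate and blood pressure changes (%) at 80-85% blocking dose.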

anesthetized monkeys = assay: In vivo neuromuscular block and cardiovascular side effects, monkey (Example 8, Table 6); details: for ED50: intravenous dose causing 50% neuromuscular block; for ΔBP (change in arterial blood pressure) / ΔH (change in heart rate): in vivo; for RI (recovery index): spontaneous recovery, 25-75% neuromuscular response; for Onset: time to 80-85% neuromuscular block
Source text: Both electromyographic and mechanomyographic responses can be quantified.
The techniques described under a) and b) were employed in other species as needed with the modification that juvenile pigs were initially anesthetized with inhalation of halothane (Table 5) and monkeys were initially sedated with intramuscular ketamine injections prior to inducing and maintaining general anesthesia using pentobarbital and propofol administered intravenously (Table 6).

rabbits = assay: In vivo neuromuscular block and cardiovascular side effects, rabbit (Example 8, Table 7); details: for ED50: intravenous dose causing 50% neuromuscular block; for ΔBP (change in arterial blood pressure) / ΔH (change in heart rate): in vivo; for RI (recovery index): spontaneous recovery, 25-75% neuromuscular response; for Onset: time to 80-85% neuromuscular block
[5] = at 80-85% neuromuscular blocking dose

Molecule: Bis[4-dimethylaminocyclohexyl]glutarate bis(benzyl bromide) [reference compound]
- ED50 [1]: 2500 µg/kg
- RI (recovery index) [1]: 1.65 (0.1) min
- Onset [1]: 1.6 (0.1) min

- % VB at ED80 nmb (vagal block) ([1]; in vivo): 63 (7) %
Molecule: Bis[N-(3,4-dipropionyloxybenzyl)-6-azabicyclo[3.2.1]octanium-3-yl]glutarate dibromide
- BP (change in arterial blood pressure) ([1]; in vivo): +8 (2) %
- HR (change in heart rate) ([1]; in vivo): 0%
- ED50 [1]: 1002 (174) μg/kg
- RI (recovery index) [1]: 0.47 (0.03) min
- Onset [1]: 0.5 (0.03) min

Molecule: CC(=O)Oc1ccc(C[N+](C)(C)C2CCC(OC(=O)/C=C/C(=O)OC3CCC([N+](C)(C)Cc4ccc(OC(C)=O)c(OC(C)=O)c4)CC3)CC2)cc1OC(C)=O.[Br-].[Br-] (stereo not shown) [Bis[4-dimethylaminocyclohexyl]fumarate bis(3,4-diacetoxybenzyl bromide)]
- % VB at ED80 nmb (vagal block) ([1]; in vivo): 65 (18) %
- BP (change in arterial blood pressure) ([1]; in vivo): −4 (3) %
- HR (change in heart rate) ([1]; in vivo): +6 (3) %
- ED50 [1]: 2125 (475) μg/kg
- RI (recovery index) [1]: 1.5 (0.1) min
- Onset [1]: 1.3 (0.1) min

- VB (vagal block) [2]: 17%
Molecule: COc1cc2c(cc1OC)[C@@H](Cc1cc(OC)c(OC)c(OC)c1)[N+](C)(CCCOC(=O)CC/C=C/CCC(=O)OCCC[N+]1(C)CCc3cc(OC)c(OC)cc3[C@H]1Cc1cc(OC)c(OC)c(OC)c1)CC2 (stereo partly shown) [Mivacurium, reference compound]
- ED50 ([2]; Sus scrofa, read-out: ED50): 0.135 mg/kg
- ΔBP (change in arterial blood pressure) [2]: 0%
- ΔH (change in heart rate) [2]: 0%
- RI (recovery index) [2]: 3.6 min
- Onset [2]: 1.5 min
- ΔBP (change in arterial blood pressure) ([3]; cat, in vivo): 0%
- ΔH (change in heart rate) ([3]; cat, in vivo): 0%
- ED50 ([3]; cat): 0.025 mg/kg
- RI (recovery index) ([3]; cat): 5 min
- Onset ([3]; cat): 3.5 min
- VB (vagal block) ([4]; male, in vivo): 0%
- ΔBP (change in arterial blood pressure) ([4]; male, in vivo): 0%
- ΔH (change in heart rate) ([4]; male, in vivo): 0%
- ED50 [4]: 0.14 mg/kg
- RI (recovery index) [4]: 3.9 min
- Onset [4]: 1.8 min
- ED50 (anesthetized monkeys; Primates, read-out: ED50): 0.034 mg/kg
- ΔBP (change in arterial blood pressure) (anesthetized monkeys): 0%
- ΔH (change in heart rate) (anesthetized monkeys): 0%
- RI (recovery index) (anesthetized monkeys): 2.4 min
- Onset (anesthetized monkeys): 1.9 min
- ED50 (rabbits; Oryctolagus cuniculus, read-out: ED50): 0.02 mg/kg
- ΔBP (change in arterial blood pressure) (rabbits): 0%
- ΔH (change in heart rate) (rabbits): 0%
- RI (recovery index) (rabbits): 3.9 min
- Onset (rabbits): 2.8 min

Molecule: COc1cc(C[N+](C)(C)C2CCC(OC(=O)CCCC(=O)OC3CCC([N+](C)(C)Cc4ccc(OC(C)=O)c(OC)c4)CC3)CC2)ccc1OC(C)=O.[Br-].[Br-] (stereo not shown) [Bis[4-dimethylaminocyclohexyl]glutarate bis(4-acetoxy-3-methoxybenzyl bromide)]
- % VB at ED80 nmb (vagal block) [1, 5]: 73 (9) %
- BP (change in arterial blood pressure) [1, 5]: −14 (5) %
- HR (change in heart rate) [1, 5]: −5 (2) %
- ED50 [1]: 2075 (188) μg/kg
- RI (recovery index) [1]: 0.9 (0.05) min
- Onset [1]: 0.84 (0.06) min

Molecule: CC(=O)Oc1ccc(C[N+]2(C)C3CCC2CC(OC(=O)C2C4C=CC(C4)C2C(=O)OC2CC4CCC(C2)[N+]4(C)Cc2ccc(OC(C)=O)c(OC(C)=O)c2)C3)cc1OC(C)=O.[Br-].[Br-] (stereo not drawn) [bis[N-(3,4-diacetoxybenzyl)tropanium-3α-yl]trans-3,6-endomet] [bis[N-(3,4-diacetoxybenzyl)tropanium-3α-yl]trans-3,6-endomethylene-1,2,3,6-tetrahydrophthalate dibromide]
- VB (vagal block) [2]: 42%
- ΔBP (change in arterial blood pressure) [2]: 0%
- ΔH (change in heart rate) [2]: 0%
- ED50 [2]: 0.197 mg/kg
- RI (recovery index) [2]: 0.9 min
- Onset [2]: 0.65 min
- ED50 ([3]; cat): 0.12 mg/kg
- RI (recovery index) ([3]; cat): 0.5 min
- Onset ([3]; cat): 0.9 min
- VB (vagal block) ([3]; in vivo): 30%
- ΔBP (change in arterial blood pressure) ([3]; in vivo): −30%
- ΔH (change in heart rate) ([3]; in vivo): −12%
- VB (vagal block) [4, 5]: 32%
- ΔBP (change in arterial blood pressure) [4, 5]: 0%
- ΔH (change in heart rate) [4, 5]: 0%
- ED50 [4]: 0.084 mg/kg
- RI (recovery index) [4]: 0.5 min
- Onset [4]: 0.65 min
- ΔBP (change in arterial blood pressure) (anesthetized monkeys): 0%
- ΔH (change in heart rate) (anesthetized monkeys): 0%
- ED50 (anesthetized monkeys): 0.06 mg/kg
- RI (recovery index) (anesthetized monkeys): 0.65 min
- Onset (anesthetized monkeys): 0.8 min
- ΔBP (change in arterial blood pressure) (rabbits): 0%
- ΔH (change in heart rate) (rabbits): 0%
- ED50 (rabbits): 0.096 mg/kg
- RI (recovery index) (rabbits): 0.7 min
- Onset (rabbits): 0.8 min

Molecule: Bis[N-(4-acetoxy-3-methoxybenzyl)-6-azabicyclo[3.2.1]octanium-3-yl]-glutarate dibromide
- % VB at ED80 nmb (vagal block) ([1]; in vivo): 68 (96) %
- BP (change in arterial blood pressure) ([1]; in vivo): +12 (5) %
- HR (change in heart rate) ([1]; in vivo): 0%
- ED50 [1]: 1425 (161) μg/kg
- RI (recovery index) [1]: 0.65 (0.05) min
- Onset [1]: 0.53 (0.04) min

Molecule: Bis[N-(3,4-diacetoxybenzyl)-6-azabicyclo[3.2.1]octanium-3-yl]glutarate dibromide
- % VB at ED80 nmb (vagal block) ([1]; in vivo): 19 (4) %
- BP (change in arterial blood pressure) ([1]; in vivo): 0%
- HR (change in heart rate) ([1]; in vivo): 0%
- ED50 [1]: 440 (39) μg/kg
- RI (recovery index) [1]: 0.4 (0.05) min
- Onset [1]: 0.55 (0.05) min

Molecule: Bis[N-(4-acetoxy-3,5-dimethoxybenzyl)-6-azabicyclo[3.2.1]octanium-3-yl]glutarate dibromide
- % VB at ED80 nmb (vagal block) ([1]; in vivo): 75 (5) %
- BP (change in arterial blood pressure) ([1]; in vivo): +21 (2) %
- HR (change in heart rate) ([1]; in vivo): 0%
- ED50 [1]: 3050 (193) μg/kg
- RI (recovery index) [1]: 1.4 (0.1) min
- Onset [1]: 0.75 (0.05) min

Molecule: Bis[4-dimethylaminocyclohexyl]fumarate bis(4-acetoxy-3-methoxybenzyl bromide)
- ED50 [1]: 2138 (128) μg/kg
- RI (recovery index) [1]: 0.65 (0.05) min
- Onset [1]: 1.3 (0.05) min

Molecule: CC(=O)Oc1ccc(C[N+](C)(C)C2CCC(OC(=O)CCCC(=O)OC3CCC([N+](C)(C)Cc4ccc(OC(C)=O)c(OC(C)=O)c4)CC3)CC2)cc1OC(C)=O.[Br-].[Br-] (stereo not shown) [Bis[4-dimethylaminocyclohexyl]glutarate bis(3,4-diacetoxybenzyl bromide)]
- % VB at ED80 nmb (vagal block) ([1]; in vivo): 64 (22) %
- BP (change in arterial blood pressure) ([1]; in vivo): −13 (6) %
- HR (change in heart rate) ([1]; in vivo): −5 (3) %
- ED50 [1]: 700 (122) μg/kg
- RI (recovery index) [1]: 0.8 (0.07) min
- Onset [1]: 0.75 (0.05) min

From patent US6376510B1, “Neuromuscular relaxants” (Newlaxant LLC, priority 1997, dated 2002)
